Target: T1, AURKA (Homo sapiens, UniProt O14965)
T1 construct: endogenous in cells; host or cells: Jurkat cells
T1 sequence (O14965 1-403): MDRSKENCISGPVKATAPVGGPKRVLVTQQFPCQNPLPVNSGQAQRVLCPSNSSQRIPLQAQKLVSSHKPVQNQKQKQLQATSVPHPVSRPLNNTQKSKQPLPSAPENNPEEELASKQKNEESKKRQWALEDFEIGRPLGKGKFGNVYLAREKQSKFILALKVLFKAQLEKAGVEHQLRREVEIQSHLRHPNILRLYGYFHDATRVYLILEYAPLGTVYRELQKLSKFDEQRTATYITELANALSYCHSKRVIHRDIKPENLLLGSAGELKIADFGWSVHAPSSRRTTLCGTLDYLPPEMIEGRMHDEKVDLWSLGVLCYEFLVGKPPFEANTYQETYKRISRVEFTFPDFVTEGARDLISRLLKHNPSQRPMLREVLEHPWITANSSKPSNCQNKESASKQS
Assay: not given
Format: cell-based
Details: 100 nM compound, Jurkat cells, 24 h, Table 1
How it was run: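 AURKA degradation read by western blot: band signal, fluorescent or chemiluminescent, curve-fitted to derive DC50. Cells were Jurkat, plated at 1×10^6 cells/500 µL with compound, then lysed and blotted onto nitrocellulose, primary antibody overnight at 4°C.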

| Compound | Percentage of AURKA Degradation Induced by 100 nM Compound in Jurkat Cells |
| --- | --- |
| COc1cc(Nc2ncc3c(n2)-c2ccc(Cl)cc2C(c2c(F)cccc2OC)=NC3)ccc1C(=O)NC1CC2(CCN(c3ccc(N4CCC(=O)NC4=O)cc3)CC2)C1 [Compound A38] | +++ (Degradation > 70%) |
| COc1cc(Nc2ncc3c(n2)-c2ccc(Cl)cc2C(c2c(F)cccc2OC)=NC3)ccc1C(=O)N1CC2(CN(Cc3cccc4c3C(=O)N(C3CCC(=O)NC3=O)C4=O)C2)C1 (stereo not drawn) [Compound A33] | ++ (30% < Degradation ≤ 70%) |
| COc1cc(Nc2ncc3c(n2)-c2ccc(Cl)cc2C(c2c(F)cccc2OC)=NC3)ccc1C(=O)NCCN1CCN(c2ccc(N3CCC(=O)NC3=O)cn2)CC1 [Compound A29] | +++ (Degradation > 70%) |
| O=C1CCN(c2cnc(N3CCC4(CC3)CC(NC(=O)c3ccc(Nc5ncc6c(n5)-c5ccc(Cl)cc5C(c5c(F)cccc5F)=NC6)cc3)C4)s2)C(=O)N1 [Compound A81] | +++ (Degradation > 70%) |
| COc1cc(Nc2ncc3c(n2)-c2ccc(Cl)cc2C(c2c(F)cccc2OC)=NC3)ccc1C(=O)NC1CC2(C1)CN(c1ccc(N3CCC(=O)NC3=O)cc1)C2 [Compound A58] | ++ (30% < Degradation ≤ 70%) |
| O=C1CCC(N2C(=O)c3cccc(NCCOCCNC(=O)c4ccc(Nc5ncc6c(n5)-c5ccc(Cl)cc5C(c5c(F)cccc5F)=NC6)cc4)c3C2=O)C(=O)N1 (stereo not drawn) [Compound A1] | ++ (30% < Degradation ≤ 70%) |
| COc1cc(Nc2ncc3c(n2)-c2ccc(Cl)cc2C(c2c(F)cccc2OC)=NC3)ccc1C(=O)N1CC(N(C)CC#Cc2cccc3c2CN(C2CCC(=O)NC2=O)C3=O)C1 (stereo not drawn) [Compound A34] | ++ (30% < Degradation ≤ 70%) |
| COc1cccc(F)c1C1=NCc2cnc(Nc3ccc(C(=O)NC4CN(CC5CN(c6cccc(N7CCC(=O)NC7=O)c6)C5)C4)cc3)nc2-c2ccc(Cl)cc21 [Compound A73] | +++ (Degradation > 70%) |
| COc1cc(Nc2ncc3c(n2)-c2ccc(Cl)cc2C(c2c(F)cccc2OC)=NC3)ccc1C(=O)NCCN1CCN(c2ncc(N3CCC(=O)NC3=O)cn2)CC1 [Compound A45] | ++ (30% < Degradation ≤ 70%) |
| COc1cc(Nc2ncc3c(n2)-c2ccc(Cl)cc2C(c2c(F)cccc2OC)=NC3)ccc1C(=O)NCC1CCN(Cc2ccc(N3CCC(=O)NC3=O)cc2)CC1 [Compound A27] | + (Degradation ≤ 30%) |
| O=C1CCN(c2cnc3c(N4CCN(CCNC(=O)c5ccc(Nc6ncc7c(n6)-c6ccc(Cl)cc6C(c6c(F)cccc6F)=NC7)cc5)CC4)cccn23)C(=O)N1 [Compound A22] | +++ (Degradation > 70%) |

Same assay, conditions: 1 µM compound, Jurkat cells, 24 h, Table 1

| Compound | Percentage of AURKA Degradation Induced by 1 µM Compound in Jurkat Cells |
| --- | --- |
| COc1cc(Nc2ncc3c(n2)-c2ccc(Cl)cc2C(c2c(F)cccc2OC)=NC3)ccc1C(=O)NC1CC2(CCN(c3ccc(N4CCC(=O)NC4=O)cc3)CC2)C1 [Compound A38] | +++ (Degradation > 70%) |
| COc1cc(Nc2ncc3c(n2)-c2ccc(Cl)cc2C(c2c(F)cccc2OC)=NC3)ccc1C(=O)N1CC2(CN(Cc3cccc4c3C(=O)N(C3CCC(=O)NC3=O)C4=O)C2)C1 (stereo not drawn) [Compound A33] | ++ (30% < Degradation ≤ 70%) |
| COc1cc(Nc2ncc3c(n2)-c2ccc(Cl)cc2C(c2c(F)cccc2OC)=NC3)ccc1C(=O)NCCN1CCN(c2ccc(N3CCC(=O)NC3=O)cn2)CC1 [Compound A29] | +++ (Degradation > 70%) |
| O=C1CCN(c2cnc(N3CCC4(CC3)CC(NC(=O)c3ccc(Nc5ncc6c(n5)-c5ccc(Cl)cc5C(c5c(F)cccc5F)=NC6)cc3)C4)s2)C(=O)N1 [Compound A81] | +++ (Degradation > 70%) |
| COc1cc(Nc2ncc3c(n2)-c2ccc(Cl)cc2C(c2c(F)cccc2OC)=NC3)ccc1C(=O)NC1CC2(C1)CN(c1ccc(N3CCC(=O)NC3=O)cc1)C2 [Compound A58] | ++ (30% < Degradation ≤ 70%) |
| O=C1CCC(N2C(=O)c3cccc(NCCOCCNC(=O)c4ccc(Nc5ncc6c(n5)-c5ccc(Cl)cc5C(c5c(F)cccc5F)=NC6)cc4)c3C2=O)C(=O)N1 (stereo not drawn) [Compound A1] | ++ (30% < Degradation ≤ 70%) |
| COc1cc(Nc2ncc3c(n2)-c2ccc(Cl)cc2C(c2c(F)cccc2OC)=NC3)ccc1C(=O)N1CC(N(C)CC#Cc2cccc3c2CN(C2CCC(=O)NC2=O)C3=O)C1 (stereo not drawn) [Compound A34] | ++ (30% < Degradation ≤ 70%) |
| COc1cccc(F)c1C1=NCc2cnc(Nc3ccc(C(=O)NC4CN(CC5CN(c6cccc(N7CCC(=O)NC7=O)c6)C5)C4)cc3)nc2-c2ccc(Cl)cc21 [Compound A73] | +++ (Degradation > 70%) |
| COc1cc(Nc2ncc3c(n2)-c2ccc(Cl)cc2C(c2c(F)cccc2OC)=NC3)ccc1C(=O)NCCN1CCN(c2ncc(N3CCC(=O)NC3=O)cn2)CC1 [Compound A45] | ++ (30% < Degradation ≤ 70%) |
| COc1cc(Nc2ncc3c(n2)-c2ccc(Cl)cc2C(c2c(F)cccc2OC)=NC3)ccc1C(=O)NCC1CCN(Cc2ccc(N3CCC(=O)NC3=O)cc2)CC1 [Compound A27] | + (Degradation ≤ 30%) |
| O=C1CCN(c2cnc3c(N4CCN(CCNC(=O)c5ccc(Nc6ncc7c(n6)-c6ccc(Cl)cc6C(c6c(F)cccc6F)=NC7)cc5)CC4)cccn23)C(=O)N1 [Compound A22] | +++ (Degradation > 70%) |

System: HCC1806 cells
Assay: CTG assay of compound inhibition on cell viability (HCC1806 cells)
Format: cell-based
Details: Homo sapiens, 144 h; HCC1806 cells, 6 days, CellTiter-Glo; read-out: IC50 in HCC1806 Cells
Method: CellTiter-Glo (CTG) is a rapid cell viability test method based on ATP detection. […] Adenosine triphosphate (ATP) participates in various enzymatic reactions in organisms and is an indicator of living cell metabolism. Its content directly reflects the number of living cells and cell status. During the experiment, equal volume of CTG reagent is added to the cultured cells to measure the luminescence value. The chemiluminescent signal value is proportional to the amount of ATP, thus reflecting the number of viable cells. Therefore, cell viability can be obtained by detecting the ATP content. Compounds that affect cell viability will inhibit cell viability in a concentration-dependent manner, allowing a curve to be fitted to obtain the IC50 value.
The experimental procedure is as follows: • 11. Place the cell suspension in a 15 mL centrifuge tube, centrifuge at 1000 rpm for 5 min at room temperature, discard the supernatant, and collect the cell pellet. • 12. Resuspend the cell pellet with preheated complete cell culture medium (RPMI1640+10%FBS+1%PS), and use a Countess® automated cell counter to detect cell viability and density. The cell viability must be above 90%. • 13. […] Transfer the compound solution to a 96-well plate seeded with cells (final concentration of DMSO 0.1%), and place in a cell incubator at 37°C, 5% CO2 for 6 days. • 15. […] Protect from light during the whole process. Perform optical signal readings using a SpectraMax i3x reader. • 16. Data analysis: Remaining activity (%) = 100% * (1 - ((LumDMSO - Lummedium) - Lumsample) / (LumDMSO - LumPBS/medium)). Use GraphPad Prism 9.0 software to draw an S-shaped dose-survival rate curve and calculate the IC50 value using a nonlinear regression model.

| Compound | IC50 |
| --- | --- |
| O=C1CCC(N2C(=O)c3cccc(NCCOCCNC(=O)c4ccc(Nc5ncc6c(n5)-c5ccc(Cl)cc5C(c5c(F)cccc5F)=NC6)cc4)c3C2=O)C(=O)N1 (stereo not drawn) [Compound A1] | < 1000 nM |

Same assay, conditions: Homo sapiens, HCC1806, 144 h, read-out: IC50 in HCC1806 Cells

| Compound | IC50 |
| --- | --- |
| COc1cc(Nc2ncc3c(n2)-c2ccc(Cl)cc2C(c2c(F)cccc2OC)=NC3)ccc1C(=O)NC1CC2(CCN(c3ccc(N4CCC(=O)NC4=O)cc3)CC2)C1 [Compound A38] | < 1000 nM |
| COc1cc(Nc2ncc3c(n2)-c2ccc(Cl)cc2C(c2c(F)cccc2OC)=NC3)ccc1C(=O)N1CC2(CN(Cc3cccc4c3C(=O)N(C3CCC(=O)NC3=O)C4=O)C2)C1 (stereo not drawn) [Compound A33] | < 1000 nM |
| COc1cc(Nc2ncc3c(n2)-c2ccc(Cl)cc2C(c2c(F)cccc2OC)=NC3)ccc1C(=O)NCCN1CCN(c2ccc(N3CCC(=O)NC3=O)cn2)CC1 [Compound A29] | < 1000 nM |
| O=C1CCN(c2cnc(N3CCC4(CC3)CC(NC(=O)c3ccc(Nc5ncc6c(n5)-c5ccc(Cl)cc5C(c5c(F)cccc5F)=NC6)cc3)C4)s2)C(=O)N1 [Compound A81] | < 1000 nM |
| COc1cc(Nc2ncc3c(n2)-c2ccc(Cl)cc2C(c2c(F)cccc2OC)=NC3)ccc1C(=O)NC1CC2(C1)CN(c1ccc(N3CCC(=O)NC3=O)cc1)C2 [Compound A58] | < 1000 nM |
| COc1cc(Nc2ncc3c(n2)-c2ccc(Cl)cc2C(c2c(F)cccc2OC)=NC3)ccc1C(=O)N1CC(N(C)CC#Cc2cccc3c2CN(C2CCC(=O)NC2=O)C3=O)C1 (stereo not drawn) [Compound A34] | < 1000 nM |
| COc1cccc(F)c1C1=NCc2cnc(Nc3ccc(C(=O)NC4CN(CC5CN(c6cccc(N7CCC(=O)NC7=O)c6)C5)C4)cc3)nc2-c2ccc(Cl)cc21 [Compound A73] | < 1000 nM |
| COc1cc(Nc2ncc3c(n2)-c2ccc(Cl)cc2C(c2c(F)cccc2OC)=NC3)ccc1C(=O)NCCN1CCN(c2ncc(N3CCC(=O)NC3=O)cn2)CC1 [Compound A45] | < 1000 nM |
| COc1cc(Nc2ncc3c(n2)-c2ccc(Cl)cc2C(c2c(F)cccc2OC)=NC3)ccc1C(=O)NCC1CCN(Cc2ccc(N3CCC(=O)NC3=O)cc2)CC1 [Compound A27] | 1000 to 10000 nM |
| O=C1CCN(c2cnc3c(N4CCN(CCNC(=O)c5ccc(Nc6ncc7c(n6)-c6ccc(Cl)cc6C(c6c(F)cccc6F)=NC7)cc5)CC4)cccn23)C(=O)N1 [Compound A22] | < 1000 nM |
